Assay results reported in BindingDB's records for doi:10.1158/0008-5472.can-03-2847 (The University of Birmingham, 2004).

Tests used:
[1] = target: T1, Aldo-keto reductase family 1 member C3 (Homo sapiens, UniProt P42330); experiment: 3alpha-Androstanediol Oxidation Inhibition Assay; settings: pH 7; 30 °C
T1 sequence (P42330 whole entry): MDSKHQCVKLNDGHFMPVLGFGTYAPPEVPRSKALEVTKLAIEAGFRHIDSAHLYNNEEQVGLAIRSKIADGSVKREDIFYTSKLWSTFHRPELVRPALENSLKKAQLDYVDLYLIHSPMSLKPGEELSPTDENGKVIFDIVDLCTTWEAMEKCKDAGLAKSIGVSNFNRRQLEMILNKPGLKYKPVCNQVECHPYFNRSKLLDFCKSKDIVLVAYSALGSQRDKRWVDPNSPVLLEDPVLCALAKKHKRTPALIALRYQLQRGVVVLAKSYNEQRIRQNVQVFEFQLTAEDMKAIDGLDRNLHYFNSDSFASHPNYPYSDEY
Description: A fluorescence assay was used to determine the kinetic constants for the oxidation of 3alpha-androstanediol. The fluorescence emission of NADPH at 450 nm (5-nm slit width) with excitation at 340 nm (15-nm slit width) was monitored. A standard curve was constructed by monitoring fluorescence changes with incremental additions of NADPH. […] The type of inhibition and the inhibition constants were calculated using the Leonora program. All reactions were initiated by the addition of enzyme.

[2] = target: T1, Aldo-keto reductase family 1 member C3; experiment: Androsterone Reduction Inhibition Assay; settings: pH 7; 30 °C
Description: Enzyme activity was measured in the reductive direction against varying concentrations of androsterone. Initial velocities were measured by observing the rate of change of absorbance of pyridine nucleotide at 340 nm. Calculation of kcat and Km values used the Leonora program, yielding estimates of the kinetic constants. […] The type of inhibition and the inhibition constants were calculated using the Leonora program. All reactions were initiated by the addition of enzyme.

Ki [1]: 0.14 µM
Ki [2]: 3.1 µM
SMILES: O=C(O)c1ccccc1Nc1cccc(C(F)(F)F)c1 [2-{[3-(trifluoromethyl)phenyl]amino}benzoic acid]
